Assays:
Type in all cases: in vivo
Diabrotica balteata = Diabrotica balteata (corn root worm), sprayed maize sprouts; conditions: 96 h, application rate 200 ppm, L2 larvae, 4 days after infestation, read-out: effect in at least one of the two categories (mortality or growth inhibition)
Method in brief: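 Maize sprouts on agar sprayed with aqueous dilutions of DMSO stocks, dried, then infested with L2 larvae (6–10 per well). Mortality and growth inhibition scored against untreated controls 4 days after infestation, at 200 ppm application rate.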

Euschistus heros = Euschistus heros (neotropical brown stink bug), sprayed soybean leaves; conditions: 120 h, application rate 200 ppm, N2 nymphs, 5 days after infestation, read-out: effect in at least one of the two categories (mortality or growth inhibition)
Method in brief: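 Soybean leaves on agar sprayed with aqueous dilutions of DMSO stocks, dried, then infested with N2 nymphs. Mortality and growth inhibition scored against untreated samples 5 days after infestation; application rate 200 ppm.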

Plutella xylostella = Plutella xylostella (diamond back moth), artificial diet; conditions: 120 h, application rate 200 ppm, L2 larvae, 5 days after infestation, read-out: effect in at least one of the two categories (mortality or growth inhibition)
Method in brief: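 Artificial diet in 24-well plates treated with aqueous test solutions made from 10'000 ppm DMSO stocks, dried, then infested with L2 larvae (10 to 15 per well). Mortality and growth inhibition scored against untreated samples 5 days after infestation; activity cut-off at least 80% in either category at 200 ppm.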

Spodoptera littoralis [1] = test: Spodoptera littoralis (Egyptian cotton leaf worm), sprayed cotton leaf discs; conditions: foliar, 72 h, application rate 200 ppm, L1 larvae, 3 days after infestation, read-out: control (mortality, anti-feeding effect, growth inhibition)
Method in brief: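 Cotton leaf discs on agar sprayed with aqueous test solutions made from 10'000 ppm DMSO stock; after drying, infested with five L1 larvae. Mortality, anti-feeding and growth inhibition scored versus untreated samples 3 days after infestation; control counted when any category exceeds untreated.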

Spodoptera littoralis [2] = test: Spodoptera littoralis (Egyptian cotton leaf worm), uptake by lettuce roots from agar; conditions: 144 h, read-out: effect in at least one of the three categories (mortality, anti-feeding, or growth inhibition)
Excerpt: Test compounds were applied by pipette from 10'000 ppm DMSO stock solutions into 24-well plates and mixed with agar. Lettuce seeds were placed onto the agar and the multi well plate was closed by another plate which contained also agar. After 7 days the compound was absorbed by the roots and the lettuce grew into the lid plate. The lettuce leaves were then cut off into the lid plate. Spodoptera eggs were pipetted through a plastic stencil onto a humid gel blotting paper and the lid plate was closed with it. The samples were assessed for mortality, anti-feedant effect and growth inhibition in comparison to untreated samples 6 days after infestation.
The following compounds gave an effect of at least 80% in at least one of the three categories (mortality, anti-feeding, or growth inhibition) at a test rate of 12.5 ppm: […]

Tetranychus urticae = Tetranychus urticae (two-spotted spider mite): feeding/contact activity; conditions: 192 h, application rate 200 ppm, mixed population (mobile stages), 8 days after infestation, read-out: mortality
Protocol: Bean leaf discs on agar in 24-well microtiter plates were sprayed with aqueous test solutions prepared from 10'000 ppm DMSO stock solutions. After drying the leaf discs were infested with a mite population of mixed ages. The samples were assessed for mortality on mixed population (mobile stages) 8 days after infestation.

Thrips tabaci = Thrips tabaci (onion thrips): feeding/contact activity; conditions: 144 h, application rate 200 ppm, Thrips population of mixed ages, 6 days after infestation, read-out: mortality
Protocol: Sunflower leaf discs were placed on agar in 24-well microtiter plates and sprayed with aqueous test solutions prepared from 10'000 ppm DMSO stock solutions. After drying the leaf discs were infested with a Thrips population of mixed ages. The samples were assessed for mortality 6 days after infestation.

Myzus persicae = Myzus persicae (green peach aphid): feeding/contact activity; conditions: 144 h, application rate 200 ppm, aphid population of mixed ages, 6 days after infestation, read-out: mortality
Protocol: Sunflower leaf discs were placed onto agar in a 24-well microtiter plate and sprayed with aqueous test solutions prepared from 10'000 ppm DMSO stock solutions. After drying, the leaf discs were infested with an aphid population of mixed ages. The samples were assessed for mortality 6 days after infestation.

CCS(=O)(=O)N1C[C@@H](NC(=O)c2ccc(C3=NO[C@@](c4cccc(C(F)(F)F)c4)(C(F)(F)F)C3)cc2C)CO1 [Compound A160]
≥ 80%: percent effect (mortality or growth inhibition) at 200 ppm (Diabrotica balteata) | percent effect (mortality or growth inhibition) at 200 ppm (Euschistus heros) | percent effect (mortality or growth inhibition) at 200 ppm (Plutella xylostella) | mortality at 200 ppm (Spodoptera littoralis [1]) | percent effect (mortality, anti-feeding or growth inhibition) at 12.5 ppm (Spodoptera littoralis [2]; test rate 12.5 ppm, eggs, 6 days after infestation) | mortality at 200 ppm (Tetranychus urticae) | mortality at 200 ppm (Thrips tabaci)

CS(=O)(=O)N1CC(NC(=O)c2ccc(C3=NOC(c4cc(Cl)cc(Cl)c4)(C(F)(F)F)C3)cc2C2CC2)CO1 (stereo not drawn) [Compound A52]
≥ 80%: percent effect (mortality or growth inhibition) at 200 ppm (Diabrotica balteata) | percent effect (mortality or growth inhibition) at 200 ppm (Euschistus heros) | percent effect (mortality or growth inhibition) at 200 ppm (Plutella xylostella) | mortality at 200 ppm (Spodoptera littoralis [1]) | percent control (mortality, anti-feedant effect or growth inhibition) at 12.5 ppm (Spodoptera littoralis [2]) | mortality at 200 ppm (Tetranychus urticae) | mortality at 200 ppm (Thrips tabaci)

CN(C)S(=O)(=O)N1CC(NC(=O)c2ccc(C3=NO[C@@](c4cc(Cl)c(Cl)c(Cl)c4)(C(F)(F)F)C3)cc2Cl)CO1 (stereo partly drawn) [Compound A32, 2-chloro-N-[2-(dimethylsulfamoyl)isoxazolidin-4-yl]-4-[(5S)-5-(3,4,5-trichlorophenyl)-5-(trifluoromethyl)-4H-isoxazol-3-yl]benzamide]
≥ 80%: percent effect (mortality or growth inhibition) at 200 ppm (Diabrotica balteata) | mortality at 200 ppm (Myzus persicae) | percent effect (mortality or growth inhibition) at 200 ppm (Plutella xylostella) | mortality at 200 ppm (Spodoptera littoralis [1]) | percent control (mortality, anti-feedant effect or growth inhibition) at 12.5 ppm (Spodoptera littoralis [2]) | mortality at 200 ppm (Tetranychus urticae) | mortality at 200 ppm (Thrips tabaci)

Cc1cc(C2=NO[C@@](c3cc(Cl)cc(C(F)(F)F)c3)(C(F)(F)F)C2)ccc1C(=O)NC1CON(S(=O)(=O)N(C)C)C1 (stereo partly drawn) [Compound A22]
≥ 80%: percent effect (mortality or growth inhibition) at 200 ppm (Diabrotica balteata) | mortality at 200 ppm (Myzus persicae) | percent effect (mortality or growth inhibition) at 200 ppm (Plutella xylostella) | mortality at 200 ppm (Spodoptera littoralis [1]) | percent control (mortality, anti-feedant effect or growth inhibition) at 12.5 ppm (Spodoptera littoralis [2]) | mortality at 200 ppm (Tetranychus urticae) | mortality at 200 ppm (Thrips tabaci)

CCS(=O)(=O)N1CC(NC(=O)c2ccc(C3=NO[C@@](c4cc(Cl)c(Cl)c(Cl)c4)(C(F)(F)F)C3)cc2Cl)CO1 (stereo partly drawn) [Compound A28, 2-chloro-N-(2-ethylsulfonylisoxazolidin-4-yl)-4-[(5S)-5-(3,4,5-trichlorophenyl)-5-(trifluoromethyl)-4H-isoxazol-3-yl]benzamide]
≥ 80%: percent effect (mortality or growth inhibition) at 200 ppm (Diabrotica balteata) | mortality at 200 ppm (Myzus persicae) | percent effect (mortality or growth inhibition) at 200 ppm (Plutella xylostella) | mortality at 200 ppm (Spodoptera littoralis [1]) | percent control (mortality, anti-feedant effect or growth inhibition) at 12.5 ppm (Spodoptera littoralis [2]) | mortality at 200 ppm (Tetranychus urticae) | mortality at 200 ppm (Thrips tabaci)

O=C(NC1CON(S(=O)(=O)C2CC2)C1)c1ccc(C2=NO[C@@](c3cc(Cl)c(F)c(Cl)c3)(C(F)(F)F)C2)cc1Cl (stereo partly drawn) [Compound A24, 2-chloro-N-(2-cyclopropylsulfonylisoxazolidin-4-yl)-4-[(5S)-5-(3,5-dichloro-4-fluoro-phenyl)-5-(trifluoromethyl)-4H-isoxazol-3-yl]benzamide]
≥ 80%: percent effect (mortality or growth inhibition) at 200 ppm (Diabrotica balteata) | mortality at 200 ppm (Myzus persicae) | percent effect (mortality or growth inhibition) at 200 ppm (Plutella xylostella) | mortality at 200 ppm (Spodoptera littoralis [1]) | percent control (mortality, anti-feedant effect or growth inhibition) at 12.5 ppm (Spodoptera littoralis [2]) | mortality at 200 ppm (Tetranychus urticae) | mortality at 200 ppm (Thrips tabaci)

Cc1cc(C2=NO[C@@](c3cc(Cl)c(F)c(Cl)c3)(C(F)(F)F)C2)ccc1C(=O)NC1CON(S(=O)(=O)CC(F)(F)F)C1 (stereo partly drawn) [Compound A8]
≥ 80%: percent effect (mortality or growth inhibition) at 200 ppm (Diabrotica balteata) | percent effect (mortality or growth inhibition) at 200 ppm (Euschistus heros) | percent effect (mortality or growth inhibition) at 200 ppm (Plutella xylostella) | mortality at 200 ppm (Spodoptera littoralis [1]) | percent control (mortality, anti-feedant effect or growth inhibition) at 12.5 ppm (Spodoptera littoralis [2]) | mortality at 200 ppm (Tetranychus urticae) | mortality at 200 ppm (Thrips tabaci)

Cc1cc(C2=NO[C@@](c3cc(Cl)c(Cl)c(Cl)c3)(C(F)(F)F)C2)ccc1C(=O)NC1CON(S(=O)(=O)N(C)C)C1 (stereo partly drawn) [Compound A31, N-[2-(dimethylsulfamoyl)isoxazolidin-4-yl]-2-methyl-4-[(5S)-5-(3,4,5-trichlorophenyl)-5-(trifluoromethyl)-4H-isoxazol-3-yl]benzamide]
≥ 80%: percent effect (mortality or growth inhibition) at 200 ppm (Diabrotica balteata) | mortality at 200 ppm (Myzus persicae) | percent effect (mortality or growth inhibition) at 200 ppm (Plutella xylostella) | mortality at 200 ppm (Spodoptera littoralis [1]) | percent control (mortality, anti-feedant effect or growth inhibition) at 12.5 ppm (Spodoptera littoralis [2]) | mortality at 200 ppm (Tetranychus urticae) | mortality at 200 ppm (Thrips tabaci)

CS(=O)(=O)N1CC(NC(=O)c2ccc(C3=NOC(c4cc(Cl)cc(Cl)c4)(C(F)(F)F)C3)cc2Br)CO1 (stereo not drawn) [Compound A48]
≥ 80%: percent effect (mortality or growth inhibition) at 200 ppm (Diabrotica balteata) | percent effect (mortality or growth inhibition) at 200 ppm (Euschistus heros) | percent effect (mortality or growth inhibition) at 200 ppm (Plutella xylostella) | mortality at 200 ppm (Spodoptera littoralis [1]) | percent control (mortality, anti-feedant effect or growth inhibition) at 12.5 ppm (Spodoptera littoralis [2]) | mortality at 200 ppm (Tetranychus urticae) | mortality at 200 ppm (Thrips tabaci)

Cc1cc(C2=NOC(c3cc(Cl)cc(Cl)c3)(C(F)(F)F)C2)ncc1C(=O)NC1CON(S(C)(=O)=O)C1 (stereo not drawn) [Compound A236]
≥ 80%: percent effect (mortality or growth inhibition) at 200 ppm (Diabrotica balteata) | percent effect (mortality or growth inhibition) at 200 ppm (Euschistus heros) | percent effect (mortality or growth inhibition) at 200 ppm (Plutella xylostella) | mortality at 200 ppm (Spodoptera littoralis [1]) | percent control (mortality, anti-feedant effect or growth inhibition) at 12.5 ppm (Spodoptera littoralis [2]) | mortality at 200 ppm (Tetranychus urticae) | mortality at 200 ppm (Thrips tabaci)

Cc1cc(C2=NOC(c3cc(C(F)(F)F)c(Cl)c(C(F)(F)F)c3)(C(F)(F)F)C2)ccc1C(=O)NC1CON(S(C)(=O)=O)C1 (stereo not drawn) [Compound A57]
≥ 80%: percent effect (mortality or growth inhibition) at 200 ppm (Diabrotica balteata) | percent effect (mortality or growth inhibition) at 200 ppm (Euschistus heros) | percent effect (mortality or growth inhibition) at 200 ppm (Plutella xylostella) | mortality at 200 ppm (Spodoptera littoralis [1]) | percent control (mortality, anti-feedant effect or growth inhibition) at 12.5 ppm (Spodoptera littoralis [2]) | mortality at 200 ppm (Tetranychus urticae) | mortality at 200 ppm (Thrips tabaci)

CCCCN(C)S(=O)(=O)N1CC(NC(=O)c2ccc(C3=NO[C@@](c4cc(Cl)c(Cl)c(Cl)c4)(C(F)(F)F)C3)cc2C)CO1 (stereo partly drawn) [Compound A85, N-[2-[butyl(methyl)sulfamoyl]isoxazolidin-4-yl]-2-methyl-4-[(5S)-5-(3,4,5-trichlorophenyl)-5-(trifluoromethyl)-4H-isoxazol-3-yl]benzamide]
≥ 80%: percent effect (mortality or growth inhibition) at 200 ppm (Diabrotica balteata) | percent effect (mortality or growth inhibition) at 200 ppm (Euschistus heros) | mortality at 200 ppm (Myzus persicae) | percent effect (mortality or growth inhibition) at 200 ppm (Plutella xylostella) | mortality at 200 ppm (Spodoptera littoralis [1]) | mortality at 200 ppm (Tetranychus urticae) | mortality at 200 ppm (Thrips tabaci)
